Patent US20060234909A1, “Compositions and methods for increasing drug efficiency” (priority 2003, published 2006)
Primed or numbered codes have the meaning given here. * marks the point of attachment. 10Ca = carbamate linkage conjugating the peptide-PEG to paclitaxel at C10; 10Ca‑PXL = paclitaxel conjugated at C10 via a carbamate; 3Am‑VBL = vinblastine (VBL) conjugate; 3Am‑VBL″ = vinblastine conjugate; PEG(13)″ = PEG(13) linker; PEG(11) = PEG(11) linker; DMAB = not defined here; 3Am = not defined here; Cbz = O=C(OCc1ccccc1)*; PEG(13) = PEG13 linker; Piv = CC(C)(C)C(=O)*; OBn = c1ccc(CO*)cc1; VBL = vinblastine; PXL = paclitaxel

How the values were obtained:
[1] = Serum stability in RPMI1640 medium containing 10% fetal bovine serum; format: in vitro ADME
Experimental: The stability of conjugates was measured in RPMI1640 cell culture medium containing 10% fetal bovine serum. The serum-containing medium was pre-warmed at 37° C. for 3 min prior to addition of test articles. Test articles, prepared in DMSO as 5 mM stocks, were added to the cell culture media to a final concentration of 10 μM. Aliquots ([…]) were withdrawn in triplicate at 0, 4, 8, 24 and 72 hours and combined with the same volume of ice-cold acetonitrile to terminate the reaction. The mixture was centrifuged at 2,000×g for 10 minutes. One part of the supernatant was mixed with four parts of deionized water to bring down the percentage of organic solvent. The diluted samples were then assayed by LC/MS for the test article. The natural log of the percent remaining was plotted versus time. A linear fit was used to determine the rate constant. The fit was truncated after the percent of remaining test article was less than 10%. The elimination half-lives associated with the disappearance of test articles were determined to compare their relative stability. The assays were carried out by Absorption Systems (Exton, Pa.).

MCF-7 breast carcinoma = assay: Cytotoxicity assay (monolayer), MCF-7; format: cell-based; conditions: MCF7, ML (monolayer); read-out: MCF7 (EC50 Ave) ML;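 also: cells treated 72 h with 6-8 compound doses versus DMSO vehicle controls, EC50 fitted by 4-parameter dose-response curves, averaged across all tests and lots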
[2] = test system: HT-29 colorectal carcinoma; assay: Cytotoxicity assay (monolayer), HT-29; format: cell-based; conditions: HT29, ML (monolayer); read-out: HT29 (EC50 Ave) ML;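 also: monolayer cultures tested in triplicate, compound exposure for three days against DMSO vehicle controls, EC50 fitted from dose-response curves and averaged across all tests and lots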
Akt = Akt (Homo sapiens, UniProt P31749); assay: Akt kinase assay (PKLight ATP utilization, substrate phosphorylation as % of parent peptide); format: biochemical; set-up: purchased Upstate (Charlottesville, Va.) 14-276
Experimental: Another test may involve monitoring the consumption of ATP. For example, ATP concentrations at time 0 or after 4 hour incubation may be monitored by luciferase reaction (PKLight kit obtained from Cambrex Corporation, One Meadowlands Plaza, East Rutherford, N.J. 07073), which generate a luminescence readout in the presence of ATP. Assays are initiated by mixing a kinase and a peptide in the presence of 40 μM ATP. After 4 hour of incubation at 30° C., PKLight reagent is added and mixed well, and luminescence readout measured. The rate of peptide phosphorylation is then directly related to the rate of decrease in the observed luminescence. Based on the first test, linkers of appropriate lengths and peptides with an effective amount of kinase activity which may be expected to be retained in the drug conjugate may be found.
Human Src (#14-326) and Akt (#14-276) kinases were purchased from Upstate (Charlottesville, Va.). Kinase reactions were carried out in 50 μl kinase reaction cocktail (25 mM Tris-HCl, pH 7.5, 5 μM β-glycerophosphate, 2 mM DTT, 0.1 mM Na3VO4, 10 mM MgCl2, 1 mg/ml BSA, […], 0.5 to 1.0 units enzyme). Substrates (peptide or drug-peptide conjugate in […]) were added (25, 50 and 100 μM) and the reaction was incubated for 2-5 hours at 30° C. PKLight reagent (23 μl) (Cambrex BioSciences, Rockland, Me.) was mixed with […] of the above kinase reaction and ATP utilization relative to no substrate and no ATP controls was determined by measuring luminescence with a SpectraMax Gemini EM plate reader (Molecular Devices, Sunnyvale, Calif.). Peptide substrates for Src and Akt have been described. For examples, see Lou et al. Letters in Peptide Science, 2, 289-296 (1995); Lou et al. Bioorganic & Medicinal Chemistry, 4, 677-682 (1996); Alessi et al. FEBS Letters, 399, 333-338 (1996). Substrate phosphorylation potential was determined from the linear portion of the substrate concentration dose response as a percentage of the activity observed with the parent peptide used for drug conjugation.

tubulin = assay: Fluorescence-based tubulin polymerization assay (MPA; enhancement for paclitaxel, inhibition for vinblastine); format: biochemical
How it was run: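 Tubulin polymerisation was followed by fluorescence (ex 360/em 405 nm) with 1 mg/ml BSA in all assays. For paclitaxel conjugates, glycerol was omitted. Parent drugs and conjugates were tested at 0.75, 1.5, 3 and 10 micromolar final, and values come from the linear range of the dose responses.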

HUVEC = assay: Cytotoxicity assay (monolayer), HUVEC; format: cell-based; conditions: ML (monolayer), read-out: HUVEC (EC50 Ave) ML
[3] = test system: Normal human foreskin fibroblasts (HFF); conditions: read-out: HFF (EC50 Ave) ML; HFF, ML (monolayer)
HT-29 cells = conditions: read-out: HT29 (EC50 Ave) SA; HT29, SA (soft agar)
Human Src = target: T1, Human Src (Homo sapiens, UniProt P12931); assay: Src kinase assay (PKLight ATP utilization, substrate phosphorylation as % of parent peptide); format: biochemical
T1 construct: purchased Upstate (Charlottesville, Va.) 14-326
How it was run: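 Recombinant human Src or Akt phosphorylated peptide or drug–peptide conjugate substrates (25, 50, 100 μM) at 30° C for 2–5 hours, in Tris-HCl pH 7.5 buffer with MgCl2 and ATP. ATP use was read by luciferase luminescence against no-substrate and no-ATP controls. Phosphorylation was taken from the linear range and expressed as % of the parent peptide.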

MCF-7 cells = conditions: read-out: MCF7 (EC50 Ave) SA; MCF7, SA (soft agar)

Sequence of Akt (P31749 whole entry): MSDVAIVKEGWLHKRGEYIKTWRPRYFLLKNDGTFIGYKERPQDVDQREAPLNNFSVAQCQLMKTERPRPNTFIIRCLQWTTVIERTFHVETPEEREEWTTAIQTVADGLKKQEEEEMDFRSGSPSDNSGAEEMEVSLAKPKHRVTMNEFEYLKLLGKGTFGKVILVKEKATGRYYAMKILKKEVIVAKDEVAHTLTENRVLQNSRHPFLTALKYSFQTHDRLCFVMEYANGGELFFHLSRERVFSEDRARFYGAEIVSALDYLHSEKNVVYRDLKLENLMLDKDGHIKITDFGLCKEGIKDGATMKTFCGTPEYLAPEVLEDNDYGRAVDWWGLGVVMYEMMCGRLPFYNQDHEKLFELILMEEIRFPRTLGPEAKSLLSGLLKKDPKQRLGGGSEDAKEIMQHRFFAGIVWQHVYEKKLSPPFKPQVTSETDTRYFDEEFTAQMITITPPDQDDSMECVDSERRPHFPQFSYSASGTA

Compound | Relative Percent Remaining at 0 hr ([1]; 0 hr) [%] | remaining at 4 h, 10 μM ([1]; bovine, 4 hr, read-out: Relative Percent Remaining at 4 hr) [%] | remaining at 8 h, 10 μM ([1]; bovine, 8 hr, read-out: Relative Percent Remaining at 8 hr) [%] | remaining at 24 h, 10 μM ([1]; bovine, 24 hr, read-out: Relative Percent Remaining at 24 hr) [%] | remaining at 72 h, 10 μM ([1]; bovine, 72 hr, read-out: Relative Percent Remaining at 72 hr) [%] | EC50 (MCF-7 breast carcinoma) [nM] | EC50 [2] [nM] | Ave. Akt Kinase Act. (Akt) | Ave. MPA Act. (tubulin) | EC50 (HUVEC) [nM] | EC50 [3] [nM] | EC50 (HT-29 cells) [nM] | Average src kinase activity (Human Src) | EC50 (MCF-7 cells) [nM]
CC(=O)O[C@H]1C(=O)[C@@]2(C)[C@H]([C@H](OC(=O)c3ccccc3)[C@]3(O)C[C@H](OC(=O)[C@H](O)[C@@H](NC(=O)c4ccccc4)c4ccccc4)C(C)=C1C3(C)C)[C@]1(OC(C)=O)CO[C@@H]1C[C@@H]2O [Paclitaxel, reference compound] | 100 | 73 | 59 | 28 | < 3 | – | – | – | – | – | – | – | – | –
Ac-GRPRTSSFAEG-3Am-VBL (Ac-GRPRTSSFAEG-{3Am-VBL}; reading uncertain; also: TFA salt, printed as Ac-GRPRTSSFAEG-3Am-VBL) | – | – | – | – | – | 20 to 100 | 20 to 100 | C (C>40) | C (C>80) | < 20 | 20 to 100 | – | – | –
Ac-RPRTSSF-PEG(11)-3Am-VBL (N-acetyl; PEG(11) linker; vinblastine conjugate) | – | – | – | – | – | 20 to 100 | 20 to 100 | C (C>40) | C (C>80) | > 100 | 20 to 100 | – | – | –
Ac-RSRTSSF-PEG(13)-10Ca-PXL (N-acetyl; PEG(13) linker; paclitaxel conjugate) | – | – | – | – | – | – | – | C (C>40) | C (C>80) | – | – | – | – | –
BOC-RPRTSSF-PEG(11)-3Am-VBL (N-BOC; PEG(11) linker; vinblastine conjugate) | – | – | – | – | – | 20 to 100 | 20 to 100 | C (C>40) | C (C>80) | 20 to 100 | 20 to 100 | – | – | –
BOC-YIYGSFR-PEG(11)-3Am-VBL (N-BOC; PEG(11) linker; vinblastine conjugate) | – | – | – | – | – | > 100 | > 100 | – | C (C>80) | > 100 | > 100 | > 100 | B (B=20-40) | > 100
CBz-E(Bzl)YIFGSFK-PEG(11)-3Am-VBL (CBz-Glu(Bzl) N-terminal; PEG(11); vinblastine conjugate) | – | – | – | – | – | > 100 | > 100 | – | B (B=50-80) | > 100 | > 100 | > 100 | C (C>40) | > 100
CBz-GRPRTSSFAEG-3Am-VBL (Cbz-GRPRTSSFAEG-{3Am-VBL}; reading uncertain; also: printed as CBz-GRPRTSSFAEG-3Am-VBL) | – | – | – | – | – | > 100 | > 100 | C (C>40) | C (C>80) | > 100 | > 100 | – | – | –
CBz-RPRTSSF-PEG(29)-3Am-VBL (N-CBz; PEG(29) linker; vinblastine conjugate) | – | – | – | – | – | > 100 | > 100 | C (C>40) | B (B=50-80) | > 100 | > 100 | – | – | > 100
Ph(C═O)-RPRTSSF-PEG(11)-3Am-VBL (N-benzoyl; PEG(11) linker; vinblastine conjugate) | – | – | – | – | – | 20 to 100 | 20 to 100 | C (C>40) | C (C>80) | 20 to 100 | 20 to 100 | – | – | –
Pv-E(Bzl)YIYGSFK(CBz)-PEG(13)-10Ca-PXL (Piv-E(OBn)YIYGSFK(Cbz)-{PEG(13)″-10Ca-PXL}; also: TFA salt) | – | – | – | – | – | > 100 | > 100 | – | A (A<50) | > 100 | > 100 | > 100 | A (A<20) | 20 to 100
Pv-E(DMAB)YIYGSFR-PEG(11)-3Am-VBL (EYIYGSFR) | – | – | – | – | – | 20 to 100 | > 100 | – | B (B=50-80) | 20 to 100 | > 100 | 20 to 100 | A (A<20) | 20 to 100
Pv-EYIYGSFR-PEG(13)-10Ca-PXL (Piv-EYIYGSFR-{PEG(13)-10Ca‑PXL}) | – | – | – | – | – | > 100 | > 100 | – | B (B=50-80) | > 100 | > 100 | > 100 | B (B=20-40) | > 100
Pv-GRPRTSSFAE(DMAB)G-3Am-VBL (Piv-GRPRTSSFAE(DMAB)G-{3Am‑VBL″}; not fully specified; reading uncertain) | – | – | – | – | – | > 100 | > 100 | C (C>40) | C (C>80) | > 100 | > 100 | – | – | –
Pv-GRPRTSSFAEG-3Am-VBL (Piv-GRPRTSSFAEG-{3Am‑VBL}; also: 2 TFA salt) | – | – | – | – | – | > 100 | > 100 | C (C>40) | C (C>80) | > 100 | > 100 | – | – | –
Pv-GRPRTSSFAEG-PEG(13)-10Ca-PXL (Piv-GRPRTSSFAEG-{PEG(13)-10Ca‑PXL}; also: TFA salt) | – | – | – | – | – | > 100 | > 100 | C (C>40) | C (C>80) | > 100 | > 100 | – | – | –
Pv-RSRKESY-PEG(13)-10Ca-PXL (Piv-RSRKESY-{PEG(13)-10Ca‑PXL}; also: 2 TFA salt) | – | – | – | – | – | – | – | C (C>40) | C (C>80) | – | – | – | – | –
Pv-RSRTSSF-PEG(11)-3Am-VBL (Piv-RSRTSSF-{PEG(11)-3Am‑VBL}; also: 2 TFA salt) | – | – | – | – | – | > 100 | > 100 | C (C>40) | C (C>80) | > 100 | > 100 | – | – | –
Pv-RSRTSSFAEG-PEG(13)-10Ca-PXL (Piv-RSRTSSFAEG-{PEG(13)-10Ca‑PXL}; also: 2 TFA salt) | – | – | – | – | – | – | – | C (C>40) | C (C>80) | – | – | – | – | –
Pv-YIFGSFR-PEG(13)-10Ca-PXL (Piv-YIFGSFR-{PEG(13)″-10Ca‑PXL}; also: TFA salt) | – | – | – | – | – | > 100 | > 100 | – | A (A<50) | > 100 | > 100 | > 100 | Zero | 20 to 100
Pv-YIYGSFR-PEG(11)-3Am-VBL (Piv-YIYGSFR-{PEG(11)-3Am‑VBL}) | – | – | – | – | – | > 100 | > 100 | – | C (C>80) | > 100 | > 100 | > 100 | B (B=20-40) | > 100
